We go through three molecules from patent publication US11369602B2, “Use of tadalafil as protein arginine methyltransferase (PRMT5) inhibitor” (Fourth Mil. Med. Univ. of People's Lib. Army, priority 2019, dated 2022).

For test [1], the target named is T1, PRMT5 (PRMT5/MEP50 purified protein) (Homo sapiens, UniProt O14744).
T1 construct: purchased abcam ab198151
The test can be described thus: SPR affinity analysis (Biacore T200). Type of test: binding. The method, then: Analysis of affinity of Tadalafil for target protein (PRMT5) was carried out using Biacore T200 analysis platform and SPR technology. Tadalafil was obtained from MCE corporation with catalog no: HY-9 0009A (50 mg). PRMT5/MEP50 purified protein was obtained from abcam corporation with catalog no: ab198151 (20 μg). Tadalafil was diluted to a series of concentrations in sequence of: 0.78, 1.56, 3.125, 6.25, 12.5, 25, 50 and 100 (μM).

The next test concerns tumor. The test can be described thus: Later functional experiment (tumor inhibitory effect).
Another test concerns MDA-MB-231 tumor. The test can be described thus: MDA-MB-231 xenograft tumor growth in immunodeficient mice. Type of test: in vivo. The settings on record: Tadalafil oral gavage 2 mg/kg once a day; Doxorubicin tail vein 2 mg/kg once a week; 25 days (FIG. 6). The method, then: Immunodeficient mice were seeded with MDA-MB-231 cells respectively. When tumor volumes reached 50-100 mm3, mice were given treatment selected from the following: PBS (Control, Ctrl), Tadalafil, Doxorubicin (DOX), Tadalafil in combination with Doxorubicin (DOX+Tadalafil). Tadalafil was administered by oral gavage (2 mg/kg, once a day) while Doxorubicin was administered by mouse tail vein injection (2 mg/kg, once a week). Body weights of mice and tumor volumes were measured every day for 25 days.

T1 sequence (O14744 whole entry): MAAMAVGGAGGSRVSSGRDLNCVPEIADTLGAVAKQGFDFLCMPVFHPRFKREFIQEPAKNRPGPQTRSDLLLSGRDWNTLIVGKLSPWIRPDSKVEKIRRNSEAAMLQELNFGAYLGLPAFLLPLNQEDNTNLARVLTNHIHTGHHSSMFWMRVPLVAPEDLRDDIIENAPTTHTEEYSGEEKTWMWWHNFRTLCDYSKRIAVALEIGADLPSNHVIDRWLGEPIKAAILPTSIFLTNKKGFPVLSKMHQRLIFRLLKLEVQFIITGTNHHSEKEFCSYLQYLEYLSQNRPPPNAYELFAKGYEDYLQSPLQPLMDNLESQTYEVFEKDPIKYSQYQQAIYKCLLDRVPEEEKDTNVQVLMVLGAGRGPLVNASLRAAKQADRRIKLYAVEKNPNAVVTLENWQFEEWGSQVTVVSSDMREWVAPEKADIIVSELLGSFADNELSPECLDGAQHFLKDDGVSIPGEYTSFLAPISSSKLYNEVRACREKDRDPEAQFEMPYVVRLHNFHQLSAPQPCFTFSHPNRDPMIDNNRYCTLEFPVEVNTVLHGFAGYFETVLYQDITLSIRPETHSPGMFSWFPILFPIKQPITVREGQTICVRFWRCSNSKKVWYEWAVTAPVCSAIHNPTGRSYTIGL
T1 sequence (Q9BQA1 whole entry partner): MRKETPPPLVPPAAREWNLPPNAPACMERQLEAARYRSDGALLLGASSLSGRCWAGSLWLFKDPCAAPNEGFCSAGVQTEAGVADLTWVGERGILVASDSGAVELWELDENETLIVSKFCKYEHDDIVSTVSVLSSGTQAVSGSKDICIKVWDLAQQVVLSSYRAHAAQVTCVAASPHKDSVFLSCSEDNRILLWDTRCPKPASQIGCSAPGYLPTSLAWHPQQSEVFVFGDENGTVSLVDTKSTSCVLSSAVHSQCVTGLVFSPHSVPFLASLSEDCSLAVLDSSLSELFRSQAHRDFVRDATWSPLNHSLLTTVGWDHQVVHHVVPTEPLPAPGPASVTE

For the molecule `CN1CC(=O)N2[C@H](c3ccc4c(c3)OCO4)c3[nH]c4ccccc4c3C[C@@H]2C1=O` [Tadalafil], in test [1] (SPR, Biacore T200, Tadalafil 0.78-100 μM), the affinity, expressed as Kd, was 22.7 ± 9.6 µM.
As for `O=C(O)c1cc(/N=N/c2ccc(S(=O)(=O)Nc3ccccn3)cc2)ccc1O` [Sulfasalazine], the “binding ability to PRMT5” value in test [1] (SPR experiment) is on record as “lower binding ability to PRMT5”. Also, in the test on tumor, the tumor inhibitory effect result is given as “relatively weak tumor inhibitory effect”.
Regarding `COc1cccc2c1C(=O)c1c(O)c3c(c(O)c1C2=O)C[C@@](O)(C(=O)CO)C[C@@H]3O[C@H]1C[C@H](N)[C@H](O)[C@H](C)O1` [Doxorubicin], the “mouse tumor volume / tumor growth” value in the test with MDA-MB-231 tumor is recorded as “inhibited tumor growth”.
